Several values for one entry are separate records, joined by “and”; a condition that tells them apart may be missing. Identical values can stand only once. Like-named read-outs stand apart in the source and are kept apart here. Values belong to the molecule of their own block, whether it stands above or below them.
What was measured:
TTR in human serum = TTR in human serum (Homo sapiens, UniProt P02766); test: TTR serum fluorescent probe exclusion (FPE) selectivity assay; type: binding; conditions: ligand 10 µM; for %FPE probe fluorescence: human serum, replicates
holo-RBP-TTR interaction = holo-RBP-TTR interaction (Homo sapiens, UniProt P02766); test: Effect on holo-RBP-TTR interaction in human serum (cross-linking, Western blot); conditions: human serum, quantified from gel image, replicates (Supp Fig.14b)
purified human TTR = purified human TTR (Homo sapiens, UniProt P02766); test: Fluorescence polarization (FP) binding assay, ligands to TTR in buffer
male Sprague-Dawley rats = conditions: cited from earlier work
[1] = target: human mu-opioid receptors (Homo sapiens, UniProt P35372); conditions: cited from earlier work
Sequence of human mu-opioid receptors (P35372 whole entry): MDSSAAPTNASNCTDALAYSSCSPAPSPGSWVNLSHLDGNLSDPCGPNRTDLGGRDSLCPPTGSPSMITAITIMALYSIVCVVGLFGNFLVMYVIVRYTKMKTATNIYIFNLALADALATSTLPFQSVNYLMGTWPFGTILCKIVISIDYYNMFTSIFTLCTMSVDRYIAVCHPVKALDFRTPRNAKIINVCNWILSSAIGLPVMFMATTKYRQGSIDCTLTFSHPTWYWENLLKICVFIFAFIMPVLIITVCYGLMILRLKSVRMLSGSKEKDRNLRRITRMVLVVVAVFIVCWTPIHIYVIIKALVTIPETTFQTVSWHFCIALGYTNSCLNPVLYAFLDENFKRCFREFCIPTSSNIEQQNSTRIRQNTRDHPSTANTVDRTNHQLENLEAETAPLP

% TTR occupancy in human serum (TTR in human serum; FPE probe 3.6 µM, 3 h reading relative to probe alone, text mean ± s.d., table replicates): 80.97% and 81.01% and 82.98% and 80.85% | %FPE probe fluorescence (TTR in human serum; time 0.000 h): 0.000% | %FPE probe fluorescence (TTR in human serum; time 0.083 h): 1.647% and 2.385% and -0.604% and 3.064% | %FPE probe fluorescence (TTR in human serum; time 0.250 h): 1.886% and 5.252% and 4.502% and 2.159% | %FPE probe fluorescence (TTR in human serum; time 0.500 h): 6.344% and 5.631% and 7.192% and 4.320% | %holo RBP binding to TTR (holo-RBP-TTR interaction): 8% and 6.2% and 5.8% | Kd (purified human TTR; FP assay, Kd from IC50 by Cheng-Prusoff, read-out: binding affinity to TTR in buffer (Kd)): 68.5 nM | % Fluorescence polarization (mean) (purified human TTR; log [nM] inhibitor 0.990): 100.000% | % Fluorescence polarization (mean) (purified human TTR; log [nM] inhibitor 1.291): 100.180% | % Fluorescence polarization (mean) (purified human TTR; log [nM] inhibitor 1.592): 101.890% | % Fluorescence polarization (mean) (purified human TTR; log [nM] inhibitor 1.893): 93.660% | % Fluorescence polarization (mean) (purified human TTR; log [nM] inhibitor 2.194): 79.820% | % Fluorescence polarization (mean) (purified human TTR; log [nM] inhibitor 2.495): 50.610% | % Fluorescence polarization (mean) (purified human TTR; log [nM] inhibitor 2.796): 29.820% | % Fluorescence polarization (mean) (purified human TTR; log [nM] inhibitor 3.097): 10.200% | % Fluorescence polarization (mean) (purified human TTR; log [nM] inhibitor 3.398): 5.680% | % Fluorescence polarization (mean) (purified human TTR; log [nM] inhibitor 3.699): 2.100% | % Fluorescence polarization (mean) (purified human TTR; log [nM] inhibitor 4.000): 0.000% | % Fluorescence polarization (mean) (purified human TTR; log [nM] inhibitor […]): 0.000%
SMILES: Cc1n[nH]c(C)c1CCCOc1cc(OCCCCCCN)cc(C(=O)O)c1 [Compound 1]
%FPE probe fluorescence (TTR in human serum; time 1.000 h): 3.308% and 7.416% and 10.395% and 10.953% | %FPE probe fluorescence (TTR in human serum; time 1.250 h): 4.585% and 8.580% and 11.565% and 11.702% | %FPE probe fluorescence (TTR in human serum; time 1.500 h): 7.132% and 12.681% and 12.080% and 11.106% | %FPE probe fluorescence (TTR in human serum; time 1.750 h): 8.769% and 12.456% and 13.547% and 12.819% | %FPE probe fluorescence (TTR in human serum; time 2.000 h): 10.680% and 14.441% and 12.622% and 13.836% | %FPE probe fluorescence (TTR in human serum; time 2.250 h): 13.720% and 16.433% and 14.485% and 14.975% | %FPE probe fluorescence (TTR in human serum; time 2.500 h): 13.664% and 19.254% and 16.706% and 17.421% | %FPE probe fluorescence (TTR in human serum; time 2.750 h): 17.610% and 18.428% and 15.401% and 17.419% | %FPE probe fluorescence (TTR in human serum; time 3.000 h): 19.032% and 18.994% and 17.022% and 19.151% | %FPE probe fluorescence (TTR in human serum; time 3.500 h): 21.344% and 21.727% and 19.004% and 22.809% | %FPE probe fluorescence (TTR in human serum; time 3.750 h): 22.381% and 21.465% and 19.735% and 21.684% | %FPE probe fluorescence (TTR in human serum; time 4.000 h): 24.245% and 24.044% and 22.333% and 25.118% | %FPE probe fluorescence (TTR in human serum; time 4.250 h): 24.067% and 25.243% and 24.565% and 26.782% | %FPE probe fluorescence (TTR in human serum; time 4.500 h): 26.784% and 27.018% and 26.091% and 25.883% | %FPE probe fluorescence (TTR in human serum; time 4.750 h): 28.232% and 25.575% and 25.168% and 25.868% | %FPE probe fluorescence (TTR in human serum; time 5.000 h): 29.310% and 28.226% and 25.991% and 29.486% | %FPE probe fluorescence (TTR in human serum; time 5.250 h): 29.376% and 30.191% and 26.180% and 29.320% | %FPE probe fluorescence (TTR in human serum; time 5.500 h): 30.897% and 29.807% and 29.795% and 31.357% | %FPE probe fluorescence (TTR in human serum; time 5.750 h): 32.177% and 31.200% and 28.228% and 32.379% | %FPE probe fluorescence (TTR in human serum; time 6.000 h): 33.601% and 32.676% and 30.907% and 33.191%

SMILES: CN(C)C(=O)C(CCN1CCC(O)(c2ccc(Cl)cc2)CC1)(c1ccccc1)c1ccccc1 [Loperamide]
GI transit (male Sprague-Dawley rats; 30 mg/kg): 30% | GI transit (male Sprague-Dawley rats; subcutaneous 1 mg/kg): 50% | ED50 for inducing constipation (male Sprague-Dawley rats; subcutaneous): 1 mg/kg

SMILES: C[N+]1(CC2CC2)CC[C@]23c4c5ccc(O)c4O[C@H]2C(=O)CC[C@@]3(O)[C@H]1C5 (some centres unmarked) [MNTX]
affinity for the mu-opioid receptors as % of naltrexone [1]: 1% | Ki ([1]; read-out: binding affinity to mu-opioid receptor (Ki)): 22.1 nM

— PMC9226319, “Peripherally restricted transthyretin-based delivery system for probes and therapeutics avoiding opioid-related side effects” (Nature Communications, 2022)
